Source: PMC6812366 (ACS Omega, 2019)

Key:
[1] = target: T1, CeDcpS (C. elegans decapping scavenger enzyme) (Caenorhabditis elegans, UniProt G5EFS4); assay: intrinsic Trp fluorescence quenching titration, association constant Kas; assay type: binding
T1 sequence (G5EFS4 1-311): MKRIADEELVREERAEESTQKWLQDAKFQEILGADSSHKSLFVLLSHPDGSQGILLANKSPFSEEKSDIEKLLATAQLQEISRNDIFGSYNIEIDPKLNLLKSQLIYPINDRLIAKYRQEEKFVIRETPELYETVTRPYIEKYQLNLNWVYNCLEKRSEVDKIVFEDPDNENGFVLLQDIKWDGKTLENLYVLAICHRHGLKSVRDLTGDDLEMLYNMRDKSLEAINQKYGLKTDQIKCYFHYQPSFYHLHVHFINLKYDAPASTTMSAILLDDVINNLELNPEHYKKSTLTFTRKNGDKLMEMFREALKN

[2] = target: T2, hDcpS (human decapping scavenger enzyme) (Homo sapiens, UniProt Q96C86); assay: as above; assay type: binding
[3] = target: T1, CeDcpS (C. elegans decapping scavenger enzyme); assay: HPLC decapping assay with recombinant enzyme, hydrolysis rate V0 at […] substrate; assay type: biochemical
[4] = target: T2, hDcpS (human decapping scavenger enzyme); assay: as above; assay type: biochemical

T2 sequence (Q96C86 2-337): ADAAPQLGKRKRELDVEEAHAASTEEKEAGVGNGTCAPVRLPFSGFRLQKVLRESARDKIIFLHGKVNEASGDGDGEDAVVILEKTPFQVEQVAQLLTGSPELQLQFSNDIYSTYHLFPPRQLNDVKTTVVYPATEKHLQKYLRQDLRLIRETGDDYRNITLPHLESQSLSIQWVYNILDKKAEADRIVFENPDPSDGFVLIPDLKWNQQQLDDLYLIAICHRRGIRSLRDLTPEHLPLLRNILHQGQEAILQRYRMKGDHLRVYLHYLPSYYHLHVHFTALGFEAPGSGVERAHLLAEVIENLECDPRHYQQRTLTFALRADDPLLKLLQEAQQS

| Kd [1] [µM] | Kd [2] [µM] | CeDcpS [3] [µM/min] | hDcpS [4] [µM/min] | Compound |
| --- | --- | --- | --- | --- |
| 0.136 | 0.286 | – | – | CNc1nc2c(c(=O)[nH]1)[n+](C)cn2[C@@H]1O[C@H](COP(=O)(O)O)[C@@H](O)[C@H]1O [m2m7GMP] |
| – | – | 1.83 ± 0.21 | 4.33 ± 0.23 | C[n+]1cn([C@@H]2O[C@H](COP(=O)(O)OP(=O)(O)OP(=O)(O)OC[C@H]3O[C@@H](n4cnc5c(=O)[nH]c(N)nc54)[C@H](O)[C@@H]3O)[C@@H](O)[C@H]2O)c2nc(N)[nH]c(=O)c21 [m7GpppG, P1-(7-methylguanosin-5′-yl)-P3-guanosin-5′-yl triphosphate] |
